From paper PMC8920097, “Prediction of hERG inhibition of drug discovery compounds using biomimetic HPLC measurements” (ADMET & DMPK, 2021)
Read-outs that look alike come from different tables or passages of the source.

Tests used:
[1] = CHI lipophilicity by gradient reversed-phase HPLC (Gemini NX-C-18); settings: for chromatographic logD: Gemini NX-C-18 reversed-phase HPLC column, pH 7.4; for chromatographic logP: reversed-phase HPLC, Gemini NX-C-18 column (50 x 3 mm, 5 µm)
Protocol: The Chromatographic Hydrophobicity Index (CHI) was measured using the compounds’ calibrated gradient retention times obtained from an Agilent 1100 HPLC fitted with a Gemini NX-C-18 column (Phenomenex Ltd Macclesfield, UK) with dimensions of 50 x 3 mm and 5 μm particle size. […] The mobile phase B was 100 % acetonitrile. […] An acetonitrile linear gradient was used from 0 to 100 %. […] The retention time values for a standard set of compounds listed in Table 1 were used to convert the drug retention times to CHI values.

[2] = Charge character of the drugs at pH 7.4; assay type: physicochemical
[3] = Phospholipid binding at pH 7.4 on IAM PC.DD2 HPLC column; assay type: physicochemical; design: key to CHI IAM: approximates acetonitrile concentration (%) in mobile phase at elution
Protocol: The phospholipid-binding was measured using an IAM PC.DD2 column with dimensions of 100 x 4.6 mm (Regis Technologies Inc., Morton Grove, IL, USA). The gradient retention times were measured using a 50 mM ammonium acetate mobile phase with the pH adjusted to 7.4. The mobile phase flow rate was 1.5 mL/min. […] The cycle time was 6 min, plus an additional 1 min equilibration time was applied while the injector prepared for the next injection. The gradient retention times were calibrated with the acetophenone homologues for which the CHI IAM values have been established using isocratic measurements. […] The CHI Index on the IAM column (CHI IAM) approximates the acetonitrile concentration in the mobile phase when the compound elutes. […] The CHI IAM values have been converted to log k IAM values derived from the CHI IAM values using equation 1. It represents the equivalent value derived from several isocratic measurements with extrapolated log retention factors to 100 % aqueous mobile phase. The log k IAM values can be converted to log K (IAM) values and show linear relationships with the octanol/water partition coefficients.

hERG channel = settings: cited from earlier work
[4] = tested on: alpha-1-acid-glycoprotein (AGP); assay: Protein binding on Chiralpak AGP HPLC column; settings: pH 7.4, Chiralpak AGP
Protocol: The measurement of the biomimetic properties of the available drugs was conducted in our laboratories. Generic gradient HPLC methods were used to determine the chromatographic hydrophobicity Index (CHI) using mobile phases at three different pH values. The protein binding of the compounds was measured using immobilised human serum albumin (HSA), and alpha-1-acid-glycoprotein (AGP) stationary phases. The phospholipid-binding was measured using the immobilised artificial membrane (IAM) stationary phase. The aim was to establish relationships between the cardiotoxicity potential and the biomimetic binding properties of the drugs and to evaluate their predictive performance.

[5] = pH 7.4, derived from CHI IAM by equation 1
[6] = literature values, mean where several reported, molar

| Molecule | chromatographic logD [1] | chromatographic logP [1] | Charge [2] | log k IAM [3, 5] | other results |
| --- | --- | --- | --- | --- | --- |
| CN(C)CCC=C1c2ccccc2CCc2ccccc21 [Amitriptyline] | 2.65 | 5.21 | Basic | 2.96 |  |
| CN1CCc2cccc3c2[C@H]1Cc1ccc(O)c(O)c1-3 [Apomorphine] | 1.17 | 2.66 |  | 2.24 |  |
| CC(C)NCC(O)COc1ccc(CC(N)=O)cc1 (stereo not shown) [Atenolol] |  |  | Basic | 1.14 |  |
| O=C(O)COCCN1CCN(C(c2ccccc2)c2ccc(Cl)cc2)CC1 (stereo not shown) [Cetirizine] |  |  |  | 2.29 |  |
| CCN(CC)CCCC(C)Nc1ccnc2cc(Cl)ccc12 (stereo not shown) [Chloroquine] |  |  |  |  | hERG pIC50 (hERG channel; [6]): 5.03 |
| CN(C)CCCN1c2ccccc2Sc2ccc(Cl)cc21 [Chlorpromazine] | -0.58 | 0.97 | Basic | 2.64 | log k AGP [4]: 1.79; CHI IAM ([3]; pH 7.4): 48.16; hERG pIC50 (hERG channel; [6]): 5.65 |
| O=C(O)c1cn(C2CC2)c2cc(N3CCNCC3)c(F)cc2c1=O [Ciprofloxacin] |  |  | Zwitterionic | 1.59 |  |
| CN(C)CCCC1(c2ccc(F)cc2)OCc2cc(C#N)ccc21 (stereo not shown) [Citalopram] |  |  | Basic |  | hERG pIC50 (hERG channel): 5.27 |
| CN1CCC[C@@H]1CCO[C@](C)(c1ccccc1)c1ccc(Cl)cc1 [Clemastine] | 3.18 | 3.18 | Basic | 3.19 | log k AGP [4]: 1.18 |
| CNCCCN1c2ccccc2CCc2ccccc21 [Desipramine] |  |  | Basic |  | log k AGP [4]: 0.94; hERG pIC50 (hERG channel; [6]): 5.36 |
| COc1ccc([C@@H]2Sc3ccccc3N(CCN(C)C)C(=O)[C@@H]2OC(C)=O)cc1 [Diltiazem] | 2.76 | 3.12 | Basic | 2.35 | CHI IAM ([3]; pH 7.4): 41.95 |
| CN(C)CCOC(c1ccccc1)c1ccccc1 [Diphenhydramine] |  |  | Basic | 2.06 |  |
| O=C(O[C@@H]1C[C@@H]2C[C@H]3C[C@H](C1)N2CC3=O)c1c[nH]c2ccccc12 [Dolasetron] | 1.46 | 1.46 | Weak Base | 1.95 |  |
| CC(C)(C)c1ccc(C(=O)CCCN2CCC(OC(c3ccccc3)c3ccccc3)CC2)cc1 [Ebastine] | 4.96 | 6.54 | Basic | 3.12 | log k AGP [4]: 1.34 |
| CC[C@H]1OC(=O)[C@H](C)[C@@H](O[C@H]2C[C@@](C)(OC)[C@@H](O)[C@H](C)O2)[C@H](C)[C@@H](O[C@@H]2O[C@H](C)C[C@H](N(C)C)[C@H]2O)[C@](C)(O)C[C@@H](C)C(=O)[C@H](C)[C@@H](O)[C@]1(C)O [Erythromycin] | 1.31 | 2.6 | Basic | 2.20 | CHI IAM ([3]; pH 7.4): 38.79 |
| CNCCC(Oc1ccc(C(F)(F)F)cc1)c1ccccc1 (stereo not shown) [Fluoxetine] |  |  |  |  | hERG pIC50 (hERG channel; [6]): 5.73 |
| COc1ccc(Cl)cc1C(=O)NCCc1ccc(S(=O)(=O)NC(=O)NC2CCCCC2)cc1 [Glibenclamide] | 2.07 | 3.17 | Acidic | 1.93 |  |
| CCC1=C(C)CN(C(=O)NCCc2ccc(S(=O)(=O)NC(=O)N[C@H]3CC[C@H](C)CC3)cc2)C1=O [Glimepiride] | 2.42 | 3.25 |  | 1.83 | log k AGP [4]: 0.40; CHI IAM ([3]; pH 7.4): 30.76; hERG pIC50 (hERG channel): 4.13 |
| CN(C)CCCN1c2ccccc2CCc2ccccc21 [Imipramine] |  |  |  |  | log k AGP [4]: 0.96 |

| Molecule | chromatographic logD [1] | chromatographic logP [1] | Charge [2] | log k IAM [3, 5] | other results |
| --- | --- | --- | --- | --- | --- |
| CC(=O)N1CCN(c2ccc(OCC3COC(Cn4ccnc4)(c4ccc(Cl)cc4Cl)O3)cc2)CC1 (stereo not shown) [Ketoconazole] |  |  |  | 2.16 | CHI IAM ([3]; pH 7.4): 37.86 |
| CCN(CC)CC(=O)Nc1c(C)cccc1C [Lidocaine] |  |  | Weak Base | 1.91 |  |
| CCn1cc(C(=O)O)c(=O)c2cc(F)c(N3CCNC(C)C3)c(F)c21 (stereo not shown) [Lomefloxacin] | -0.14 | -0.14 |  | 2.16 | CHI IAM ([3]; pH 7.4): 37.89 |
| CCOC(=O)N1CCC(=C2c3ccc(Cl)cc3CCc3cccnc32)CC1 [Loratadine] |  |  | Weak Base | 2.46 |  |
| CC[C@H](C)C(=O)O[C@H]1C[C@@H](C)C=C2C=C[C@H](C)[C@H](CC[C@@H]3C[C@@H](O)CC(=O)O3)[C@H]21 [Lovastatin] | 4.09 |  |  | 2.46 | CHI IAM ([3]; pH 7.4): 44.38 |
| CCOC(=O)C1=C(C)NC(C)=C(C(=O)OC)C1c1cccc([N+](=O)[O-])c1 (stereo not shown) [Nitrendipine] | 3.15 | 3.19 | Neutral |  | log k AGP [4]: 0.69; hERG pIC50 (hERG channel; [6]): 5.10 |
| Cc1cc2c(s1)Nc1ccccc1N=C2N1CCN(C)CC1 [Olanzapine] |  |  | Weak Base |  | log k IAM ([3]; pH 7.4): 2.71 |
| CCN(CC)CCNC(=O)c1ccc(N)cc1 [Procainamide] | -0.59 | 0.95 | Basic | 1.29 |  |
| OCCOCCN1CCN(C2=Nc3ccccc3Sc3ccccc32)CC1 [Quetiapine] | 2.55 | 2.69 |  |  |  |
| C=C[C@H]1C[N@@]2CC[C@H]1C[C@@H]2[C@@H](O)c1ccnc2ccc(OC)cc12 [Quinidine] |  |  | Basic | 2.71 | log k AGP [4]: 0.68; hERG pIC50 (hERG channel): 5.51 |
| Cc1nc2n(c(=O)c1CCN1CCC(c3noc4cc(F)ccc34)CC1)CCCC2 [Risperidone] |  |  | Weak Base | 2.09 |  |
| CC(C)c1nc(CN(C)C(=O)N[C@H](C(=O)N[C@@H](Cc2ccccc2)C[C@H](O)[C@H](Cc2ccccc2)NC(=O)OCc2cncs2)C(C)C)cs1 [Ritonavir] | 3.25 | 3.41 | Neutral | 2.2 | log k AGP [4]: 0.64; CHI IAM ([3]; pH 7.4): 38.64 |
| CCCc1nn(C)c2c(=O)[nH]c(-c3cc(S(=O)(=O)N4CCN(C)CC4)ccc3OCC)nc12 [Sildenafil] | 2.59 | 2.62 | Weak Base | 2.03 | CHI IAM ([3]; pH 7.4): 35.00 |
| Cc1cc(NS(=O)(=O)c2ccc(N)cc2)no1 [Sulfamethoxazole] |  |  |  | 1.01 |  |
| CSc1ccc2c(c1)N(CCC1CCCCN1C)c1ccccc1S2 (stereo not shown) [Thioridazine] | 3.02 | 5.46 |  | 3.65 |  |
| Cc1ccc(O)c([C@H](CCN(C(C)C)C(C)C)c2ccccc2)c1 [Tolterodine] | 2 | 4.95 |  | 2.83 |  |
| Nicotine |  |  |  |  | hERG pIC50 (hERG channel): 3.61 |
| Prazosin |  |  |  |  | hERG pIC50 (hERG channel; [6]): 5.22 |
